Holding throughout (test): NCI anticancer screen, dose series, 48 h
In assay [1] the test system is ACHN.
For assay [2], the system named is CCRF-CEM.
The test system of assay [3] is COLO 205.
Assay [4] concerns DMS-273.
Assay [5] deals with HCT-15.
Assay [6] deals with IGROV-1.
The subject of assay [7] is M19-MEL.
Assay [8] deals with NCI-H460.
In assay [9] the test system is OVCAR-3.
The subject of assay [10] is OVCAR-4.
For assay [11], the system named is OVCAR-8.
Assay [12] has as its system SF-268.
The test system of assay [13] is SK-MEL-5.
For assay [14], the system named is SW-620.
For assay [15], the system named is TK-10.
The test system of assay [16] is U-251.
The test system of assay [17] is UACC-257.
For assay [18], the system named is DU-145.
In assay [19] the test system is MDA-N.
Assay [20] concerns NCI/ADR-RES.

From ChEMBL document CHEMBL1201862, “PubChem BioAssay data set” (2004) come the findings set out here.

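Where inhibition never reached the appropriate level, the endpoint shown equals the highest concentration tested. Otherwise, values were interpolated linearly from a five-concentration, 48-hour dose response in 96-well plates. GI50 = concentration required for 50% inhibition of growth.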 Calls of active or inactive are those of the source. Rule as the data show it: active = GI50 up to about 1.1 µM and inactive = higher. Some results are limits rather than exact numbers.

In the case of `O=S(=O)(/C=C/c1ccc(F)cc1)Cc1ccc(CS(=O)(=O)/C=C/c2ccc(F)cc2)cc1`, the GI50 is > 100 µM (inactive) in assay [1]; > 100 µM (inactive) in assay [2]; > 100 µM (inactive) in [3]; > 100 µM (inactive) in assay [4]; more than 100 µM in assay [5]; > 100 µM (inactive) in [6]. Moreover, the GI50 in assay [7], in [8], in assay [9], in assay [10], in assay [11] and in assay [12] was > 100 µM (inactive) in each case. The GI50 in assay [13], in assay [14], in assay [15], in assay [16] and in assay [17] was > 100 µM (inactive) throughout.

Take `COc1ccccc1NC(=O)C1=C(C)NC(C)=C(C(=O)Nc2ccccc2OC)C1c1ccccc1OC`: the GI50 in assay [1] was 74.5 µM (inactive); in [2], > 100 µM (inactive); in [3] it was 36.9 µM (inactive); in assay [4], > 100 µM (inactive); in assay [5], more than 100 µM; in assay [6], > 100 µM (inactive). Besides, the GI50 is > 100 µM (inactive) in [7]; 97.3 µM (inactive) in assay [8]; 80.4 µM (inactive) in assay [9]; 69 µM (inactive) in [10]; > 100 µM (inactive) in [11]; > 100 µM (inactive) in assay [12]. Moreover, the GI50 in assay [13], in [14], in assay [15], in assay [16] and in [17] was > 100 µM (inactive) throughout.

On to `Cc1cc(C)[n+](CCOc2ccc(/C(=C(/Cl)c3ccccc3)c3ccccc3)cc2)c(C)c1.[O-][Cl+3]([O-])([O-])[O-]`, for which the GI50 was 10 µM (inactive) in [1]; 0.521 µM (active) in assay [2]; 0.292 µM (active) in [3]; 0.366 µM (active) in assay [4]; 13.4 µM in [5]; 0.612 µM (active) in assay [6]. For the same molecule, the GI50 in assay [7] was 0.495 µM (active); in assay [8], 1.25 µM (inactive); in [9], 0.659 µM (active); in assay [10], 0.944 µM (active); in [11], 1.33 µM (inactive); in assay [12], 0.933 µM (active). Also, the GI50 was 0.455 µM (active) in assay [13]; 0.891 µM (active) in assay [14]; 3.52 µM (inactive) in assay [15]; 0.685 µM (active) in assay [16]; 0.692 µM (active) in assay [17].

In the case of `CN1C=C(C(N)=O)C2CC(O)[C@@](NC(=O)CS(N)(=O)=O)(C(=O)O)C2C1` (some centres undefined), the GI50 in assay [1] was 4.88 µM (inactive); in [2], 9.33 µM (inactive); in assay [3] it was 14.1 µM (inactive); in [4] it was 3.21 µM (inactive); in assay [5], 8.91 µM; in assay [6], 2.73 µM (inactive). Moreover, the GI50 in assay [7] was 4.39 µM (inactive); in [8], 3.49 µM (inactive); in assay [9], 17.5 µM (inactive); in assay [10], 2.09 µM (inactive); in assay [11] it was 5.9 µM (inactive); in [12] it was 3.02 µM (inactive). For the same molecule, the GI50 in assay [13] is 6.31 µM (inactive); in assay [14] it was 3.87 µM (inactive); in assay [15], 3.92 µM (inactive); in assay [16] it was 3.05 µM (inactive); in assay [17] it was 5.24 µM (inactive).

For `O=C(Nc1ccn(CCO)c(=O)n1)c1ccccc1`, the GI50 in assay [1] was > 100 µM (inactive); in [2], > 100 µM (inactive); in assay [3], > 100 µM (inactive); in assay [4], > 100 µM (inactive); in assay [5], more than 100 µM; in [6], > 100 µM (inactive). The GI50 in assay [7], in [8], in assay [9], in assay [10], in assay [11] and in [12] was > 100 µM (inactive) each time. Besides, the GI50 in [13], in [14], in assay [15], in [16] and in assay [17] was > 100 µM (inactive) throughout.

Regarding `Cc1cc(Cl)cc2c1NC(=O)C2(O)CC(=O)c1ccco1` (centres undefined), the GI50 in [1] was > 100 µM (inactive); in assay [2], 38.7 µM (inactive); in [3], > 100 µM (inactive); in [4], > 100 µM (inactive); in [18] it was > 100 µM (inactive); in assay [5], more than 100 µM. Also, the GI50 in [6] is 99.3 µM (inactive); in [7], 15.6 µM (inactive); in [19], 10.4 µM (inactive); in [8], > 100 µM (inactive); in assay [20] it was 59.7 µM (inactive); in assay [9], 52.4 µM (inactive). The GI50 in assay [10] was 12.3 µM (inactive); in [11] it was > 78.3 µM (inactive); in assay [12] it was > 100 µM (inactive); in [13], 22.2 µM (inactive); in assay [14], > 78.2 µM (inactive); in [15] it was > 100 µM (inactive). The GI50 was > 90.6 µM (inactive) in assay [16] and 45.9 µM (inactive) in [17].

Regarding `Cc1ccc(-c2nc3ccccc3c(=O)n2NC2OC(CO)C(O)C(O)C2O)cc1` (centres undefined), the GI50 was > 100 µM (inactive) in assay [1]; > 100 µM (inactive) in assay [2]; > 100 µM (inactive) in [3]; > 100 µM (inactive) in assay [4]; more than 100 µM in assay [5]; > 100 µM (inactive) in assay [6]. The GI50 in assay [7], in [8], in [9], in assay [10], in assay [11] and in assay [12] was > 100 µM (inactive) throughout. Moreover, the GI50 in assay [13], in [14], in assay [15], in [16] and in assay [17] was > 100 µM (inactive) in each case.

Take `NC(CCC(=O)NC(CSSCCCCS(=O)O)C(=O)NCC(=O)O)C(=O)O` (centres undefined): the GI50 in assay [1] was > 100 µM (inactive); in [2], > 100 µM (inactive); in assay [3], > 100 µM (inactive); in assay [4], > 100 µM (inactive); in assay [5], more than 100 µM; in [6] it was > 100 µM (inactive). The GI50 in assay [7], in [8], in assay [9], in assay [10], in assay [11] and in assay [12] was > 100 µM (inactive) each time. In addition, the GI50 in [13], in assay [14], in [15], in [16] and in [17] was > 100 µM (inactive) throughout.
